Like-named read-outs stand apart in the source and are kept apart here.
Tests used:
SW48 KRAS (G12D/+) = test: 72-hour CellTiter-Glo 2.0 growth inhibition screen (single agent, 9x9 combination dose matrix); format: cell-based; conditions: for EC50: SW48, 72 h, read-out: EC50;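 on Best CI Level: inhibition effect level at which the best CI was calculated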
AsPC-1 = test: as above; format: cell-based; conditions: for EC50: ASPC1, 72 h
HPAF-II = test: as above; format: cell-based
LS-513 = test: as above; format: cell-based; conditions: for EC50: LS-513, 72 h
Huh-7 xenografts = test: CIVO intratumoral microinjection, Huh-7 xenografts; format: in vivo; conditions: Huh-7 liver cancer model
Description: FIG. 6 depicts the CIVO injection array.
CC3 is not elevated over background levels at any injection site.

[1] = Homo sapiens, SW48 KRAS (G12D/+), Colorectal, Additional Single Agent Responses (inhibition, % I), 72 h
[2] = Homo sapiens, SW48 KRAS (G12D/+), Colorectal, growth inhibition (GI) curve, single agent, 72 h
[3] = SW48 KRAS (G12D/+), enhancer + MEI-522 (Voruciclib), 72 h
[4] = enhancer combined with MEI-522 (Voruciclib), SW48 KRAS (G12D/+) (Colorectal), 72 hours, inhibition data
[5] = AsPC-1 (KRAS G12D), enhancer + MEI-522 (Voruciclib), 72 h;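 on Best CI Level: inhibition effect level at which the best CI was calculated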
[6] = enhancer combined with MEI-522 (Voruciclib), AsPC-1 (Pancreas), 72 hours, inhibition data
[7] = HPAF-II (KRAS G12D), enhancer + MEI-522 (Voruciclib), 72 h;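 on Best CI Level: inhibition effect level at which the best CI was calculated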
[8] = enhancer combined with MEI-522 (Voruciclib), HPAF-II (Pancreas), 72 hours, inhibition data
[9] = Homo sapiens, LS-513, Colorectal, Additional Single Agent Responses (inhibition, % I), 72 h
[10] = Homo sapiens, LS-513, Colorectal, growth inhibition (GI) curve, single agent, 72 h
[11] = LS-513 (KRAS G12D), enhancer + MEI-522 (Voruciclib), 72 h;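 on Best CI Level: inhibition effect level at which the best CI was calculated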
[12] = enhancer combined with MEI-522 (Voruciclib), LS-513 (Colorectal), 72 hours, inhibition data

EC50 (SW48 KRAS (G12D/+); [1]): 14 nM
EC50 (SW48 KRAS (G12D/+); [2]): 15.7 nM
IC50 (SW48 KRAS (G12D/+); [1]): 17.8 nM
GI50 (SW48 KRAS (G12D/+); [2]): 13.9 nM
EC50 (AsPC-1; Homo sapiens, AsPC-1, Pancreas, Additional Single Agent Responses (inhibition, % I), 72 h): 94.9 nM
EC50 (AsPC-1; Homo sapiens, AsPC-1, Pancreas, growth inhibition (GI) curve, single agent, 72 h): 82.3 nM
IC50 (AsPC-1; Homo sapiens, ASPC1, AsPC-1, Pancreas, Additional Single Agent Responses (inhibition, % I), 72 h): 332 nM
GI50 (AsPC-1; Homo sapiens, ASPC1, AsPC-1, Pancreas, growth inhibition (GI) curve, single agent, 72 h): 109 nM
SMILES: CN1CCN(c2ccc(OC(F)(F)F)c(Nc3ncc4c(n3)-c3c(c(C(N)=O)nn3CCO)CC4)c2)CC1 [Onvansertib]
Emax (SW48 KRAS (G12D/+); Homo sapiens, SW48 KRAS (G12D/+), Colorectal, Additional Single Agent Responses, 72 h, read-out: Max Response (% I)): 92%
Emax (SW48 KRAS (G12D/+); Homo sapiens, SW48 KRAS (G12D/+), Colorectal, growth inhibition (GI), single agent, 72 h, read-out: Max Response (% GI)): 168%
Response Area (SW48 KRAS (G12D/+); SW48 KRAS (G12D/+), Colorectal, Additional Single Agent Responses (inhibition, % I), 72 h): 3.73
Response Area (SW48 KRAS (G12D/+); SW48 KRAS (G12D/+), Colorectal, growth inhibition (GI), AUC, single agent, 72 h): 5.57
Best CI (SW48 KRAS (G12D/+); [3]): 0.39
Bliss Volume (SW48 KRAS (G12D/+); [3]): 5.34
HSA volume (SW48 KRAS (G12D/+); [3]): −1.32
Loewe Volume (SW48 KRAS (G12D/+); [3]): 1.06
Synergy Score (SW48 KRAS (G12D/+); [3]): 8.15
Best CI (SW48 KRAS (G12D/+); [4]): 0.51
Bliss Volume (SW48 KRAS (G12D/+); [4]): −0.39
HSA volume (SW48 KRAS (G12D/+); [4]): −0.28
Loewe Volume (SW48 KRAS (G12D/+); [4]): 0.65
Synergy Score (SW48 KRAS (G12D/+); [4]): 2.12
Best CI Level (SW48 KRAS (G12D/+); enhancer combined with MEI-522 (Voruciclib), SW48 KRAS (G12D/+) (Colorectal), 72 hours, inhibition data, unit assumed): 20%
Best CI (AsPC-1; [5]): 0.84
Bliss Volume (AsPC-1; [5]): −1.25
HSA volume (AsPC-1; [5]): −1.39
Loewe Volume (AsPC-1; [5]): −0.75
Synergy Score (AsPC-1; [5]): 1.41
Response Area (AsPC-1; AsPC-1, Pancreas, Additional Single Agent Responses (inhibition, % I), 72 h): 2.50
Response Area (AsPC-1; AsPC-1, Pancreas, growth inhibition (GI), AUC, single agent, 72 h): 3.48
Emax (AsPC-1; Homo sapiens, ASPC1, AsPC-1, Pancreas, Additional Single Agent Responses, 72 h, read-out: Max Response (% I)): 60%
Emax (AsPC-1; Homo sapiens, ASPC1, AsPC-1, Pancreas, growth inhibition (GI), single agent, 72 h, read-out: Max Response (% GI)): 84%
Best CI (AsPC-1; [6]): 1.13
Best CI Level (AsPC-1; [6]): 20
Bliss Volume (AsPC-1; [6]): −1.91
HSA volume (AsPC-1; [6]): −0.98
Loewe Volume (AsPC-1; [6]): −0.67
Synergy Score (AsPC-1; [6]): 0.67
Best CI (HPAF-II; [7]): 0.70
Bliss Volume (HPAF-II; [7]): −0.18
HSA volume (HPAF-II; [7]): 0.48
Loewe Volume (HPAF-II; [7]): −0.22
Synergy Score (HPAF-II; [7]): 1.29
Response Area (HPAF-II; HPAF-II, Pancreas, Additional Single Agent Responses (inhibition, % I), 72 h): 2.97
Response Area (HPAF-II; HPAF-II, Pancreas, growth inhibition (GI), AUC, single agent, 72 h): 3.98
EC50 (HPAF-II; Homo sapiens, HPAF-II, 72 h, Pancreas, Additional Single Agent Responses (inhibition, % I)): 20.9 nM
EC50 (HPAF-II; Homo sapiens, HPAF-II, 72 h, Pancreas, growth inhibition (GI) curve, single agent): 21 nM
IC50 (HPAF-II; Homo sapiens, HPAF-II, Pancreas, Additional Single Agent Responses (inhibition, % I), 72 h): 35.9 nM
Emax (HPAF-II; Homo sapiens, HPAF-II, Pancreas, Additional Single Agent Responses, 72 h, read-out: Max Response (% I)): 65%
GI50 (HPAF-II; Homo sapiens, HPAF-II, Pancreas, growth inhibition (GI) curve, single agent, 72 h): 24.2 nM
Emax (HPAF-II; Homo sapiens, HPAF-II, Pancreas, growth inhibition (GI), single agent, 72 h, read-out: Max Response (% GI)): 87%
Best CI (HPAF-II; [8]): 0.85
Bliss Volume (HPAF-II; [8]): −1.20
HSA volume (HPAF-II; [8]): 0.37
Loewe Volume (HPAF-II; [8]): −0.12
Synergy Score (HPAF-II; [8]): 0.74
Best CI Level (HPAF-II; enhancer combined with MEI-522 (Voruciclib), HPAF-II (Pancreas), 72 hours, inhibition data, unit assumed): 20%
EC50 (LS-513; [9]): 49.4 nM
EC50 (LS-513; [10]): 49.4 nM
IC50 (LS-513; [9]): 61.6 nM
Emax (LS-513; Homo sapiens, LS-513, Colorectal, Additional Single Agent Responses, 72 h, read-out: Max Response (% I)): 79%
GI50 (LS-513; [10]): 51.7 nM
Emax (LS-513; Homo sapiens, LS-513, Colorectal, growth inhibition (GI), single agent, 72 h, read-out: Max Response (% GI)): 97%
Best CI (LS-513; [11]): 0.96
Bliss Volume (LS-513; [11]): 0.53
HSA volume (LS-513; [11]): −0.64
Loewe Volume (LS-513; [11]): −1.49
Synergy Score (LS-513; [11]): 2.51
Response Area (LS-513; LS-513, Colorectal, Additional Single Agent Responses (inhibition, % I), 72 h): 3.29
Response Area (LS-513; LS-513, Colorectal, growth inhibition (GI), AUC, single agent, 72 h): 4.03
Best CI (LS-513; [12]): 0.90
Best CI Level (LS-513; [12]): 20
Bliss Volume (LS-513; [12]): −2.22
HSA volume (LS-513; [12]): −0.87
Loewe Volume (LS-513; [12]): −1.32
Synergy Score (LS-513; [12]): 0.70
apoptotic cells (CC3) (Huh-7 xenografts): do not result in an increase in apoptotic cells

Source: patent US20240016781A1, “TREATMENT OF KRAS MUTANT CANCERS” (MEI Pharma, Inc., priority 2020, published 2024)
